# Measurements reported in patent publication US20190021995A1, “FORMULATION FOR TREATMENT OF PERIPHERAL JOINTS, SPINAL JOINTS AND/OR EXTRACELLULAR MATRIX ELEMENTS OF CONNECTIVE TISSUE, METHOD OF MANUFACTURE AND USES” (priority 2015, published 2019).
# Experiment: Studies of glucosamine salts delivered by the transdermal delivery system
# From the text: In accordance with the present invention, the above-indicated studies have shown that the transdermal delivery system described above can be used for delivering, for example, any glucosamine salt such as glucosamine hydrochloride, glucosamine sulfate, glucosamine sulfate stabilized with sodium chloride or potassium chloride.
smiles,measurement,value
N[C@H]1C(O)O[C@H](CO)[C@@H](O)[C@@H]1O.O=S(=O)(O)O.[Cl-].[K+] (stereo partly shown) [glucosamine sulfate potassium chloride],bioavailability of glucosamine in blood plasma and synovial fluid among glucosamine salts,maximal bioavailability
